# Measured values: patent US5358951A, “Angiotensin II receptor blocking 2, 3, 6 substituted quinazolinones” (American Cyanamid Company, priority 1993, dated 1994)
# Test system: vasopressor response of angiotensin II
# Assay: AII Challenge: antagonism of angiotensin II vasopressor response
# Assay type: in vivo
# Conditions: for inhibition in vivo at 3 mg/kg / inhibition in vivo at 5 mg/kg: Rattus norvegicus; for inhibition in vivo at 3 mg/kg: iv; for inhibition in vivo at 5 mg/kg: po
# Procedure, shortened: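 Percent antagonism is based on the systolic blood pressure rise (mmHg) to i.v. angiotensin II at 0.05 and 0.1 ug/kg. Each rat's own predose response was taken as 100%. Challenges were repeated from 30 to 300 min after i.v., i.p. or oral compound in cannulated conscious male SHR, 16-20 weeks old.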
smiles,measurement,setting,value
"CCCCc1nc2ccc(C3(C)CC4c5ccccc5CCN4O3)cc2c(=O)n1Cc1ccc(-c2ccccc2-c2nnn[nH]2)cc1 (stereo not drawn) [Example 64, Cis and Trans-2-Butyl-6-(1,5,6,10b-tetrahydro-2-methyl-2H-isoxazolo[3,2-a]isoquinolin-2-yl)-3-[[2'-(1H-tetrazol-5-yl][1,1'-biphenyl]-4-yl]methyl]-4(3H)-quinazolinone]",Response Average Change,"3 mg/kg I.V., AII 0.05 mcg/kg IV, 30 min post dose",2.5 mmHg
same,Response Average Change,"3 mg/kg I.V., AII 0.05 mcg/kg IV, 60 min post dose",2.5 mmHg
same,Response Average Change,"3 mg/kg I.V., AII 0.05 mcg/kg IV, 90 min post dose",7.5 mmHg
same,Response Average Change,"3 mg/kg I.V., AII 0.05 mcg/kg IV, 180 min post dose",7.5 mmHg
same,Response Average Change,"3 mg/kg I.V., AII 0.05 mcg/kg IV, 240 min post dose",18 mmHg
same,Response Average Change,"3 mg/kg I.V., AII 0.05 mcg/kg IV, 300 min post dose",7.5 mmHg
same,Response Average Change,"3 mg/kg I.V., AII 0.1 mcg/kg IV, 30 min post dose",5 mmHg
same,Response Average Change,"3 mg/kg I.V., AII 0.1 mcg/kg IV, 60 min post dose",5 mmHg
same,Response Average Change,"3 mg/kg I.V., AII 0.1 mcg/kg IV, 90 min post dose",7.5 mmHg
same,Response Average Change,"3 mg/kg I.V., AII 0.1 mcg/kg IV, 120 min post dose",10 mmHg
same,Response Average Change,"3 mg/kg I.V., AII 0.1 mcg/kg IV, 180 min post dose",11 mmHg
same,Response Average Change,"3 mg/kg I.V., AII 0.1 mcg/kg IV, 240 min post dose",12.5 mmHg
same,Response Average Change,"3 mg/kg I.V., AII 0.1 mcg/kg IV, 300 min post dose",18.5 mmHg
same,Response Average Change,"3 mg/kg I.V., AII 0.5 mcg/kg IV, 120 min post dose",5 mmHg
same,Response Average Change,"5 mg/kg P.O., AII 0.05 mcg/kg IV, 30 min post dose",15 mmHg
same,Response Average Change,"5 mg/kg P.O., AII 0.05 mcg/kg IV, 60 min post dose",18.5 mmHg
same,Response Average Change,"5 mg/kg P.O., AII 0.05 mcg/kg IV, 120 min post dose",20 mmHg
same,Response Average Change,"5 mg/kg P.O., AII 0.05 mcg/kg IV, 180 min post dose",17.5 mmHg
same,Response Average Change,"5 mg/kg P.O., AII 0.1 mcg/kg IV, 30 min post dose",27.5 mmHg
same,Response Average Change,"5 mg/kg P.O., AII 0.1 mcg/kg IV, 60 min post dose",23.5 mmHg
same,Response Average Change,"5 mg/kg P.O., AII 0.1 mcg/kg IV, 90 min post dose",22 mmHg
same,Response Average Change,"5 mg/kg P.O., AII 0.1 mcg/kg IV, 120 min post dose",20 mmHg
same,Response Average Change,"5 mg/kg P.O., AII 0.1 mcg/kg IV, 180 min post dose",24 mmHg
same,Response Average Change,"5 mg/kg P.O., AII 0.5 mcg/kg IV, 90 min post dose",20 mmHg
same,inhibition in vivo at 3 mg/kg,"0.5 h, 3 mg/kg I.V., AII 0.05 mcg/kg IV, 30 min post dose",93%
same,inhibition in vivo at 3 mg/kg,"0.5 h, 3 mg/kg I.V., AII 0.1 mcg/kg IV, 30 min post dose",91%
same,inhibition in vivo at 3 mg/kg,"1 h, 3 mg/kg I.V., AII 0.05 mcg/kg IV, 60 min post dose",93%
same,inhibition in vivo at 3 mg/kg,"1 h, 3 mg/kg I.V., AII 0.1 mcg/kg IV, 60 min post dose",91%
same,inhibition in vivo at 3 mg/kg,"2 h, 3 mg/kg I.V., AII 0.1 mcg/kg IV, 120 min post dose",81%
same,inhibition in vivo at 3 mg/kg,"2 h, 3 mg/kg I.V., AII 0.5 mcg/kg IV, 120 min post dose",86%
same,inhibition in vivo at 3 mg/kg,"3 h, 3 mg/kg I.V., AII 0.05 mcg/kg IV, 180 min post dose",79%
same,inhibition in vivo at 3 mg/kg,"3 h, 3 mg/kg I.V., AII 0.1 mcg/kg IV, 180 min post dose",80%
same,inhibition in vivo at 3 mg/kg,"4 h, 3 mg/kg I.V., AII 0.05 mcg/kg IV, 240 min post dose",51%
same,inhibition in vivo at 3 mg/kg,"4 h, 3 mg/kg I.V., AII 0.1 mcg/kg IV, 240 min post dose",77%
same,inhibition in vivo at 3 mg/kg,"5 h, 3 mg/kg I.V., AII 0.05 mcg/kg IV, 300 min post dose",79%
same,inhibition in vivo at 3 mg/kg,"5 h, 3 mg/kg I.V., AII 0.1 mcg/kg IV, 300 min post dose",66%
same,inhibition in vivo at 3 mg/kg,"[…], 3 mg/kg I.V., AII 0.05 mcg/kg IV, 90 min post dose",79%
same,inhibition in vivo at 3 mg/kg,"[…], 3 mg/kg I.V., AII 0.1 mcg/kg IV, 90 min post dose",86%
same,inhibition in vivo at 5 mg/kg,"0.5 h, 5 mg/kg P.O., AII 0.05 mcg/kg IV, 30 min post dose",54%
same,inhibition in vivo at 5 mg/kg,"0.5 h, 5 mg/kg P.O., AII 0.1 mcg/kg IV, 30 min post dose",25%
same,inhibition in vivo at 5 mg/kg,"1 h, 5 mg/kg P.O., AII 0.05 mcg/kg IV, 60 min post dose",43%
same,inhibition in vivo at 5 mg/kg,"1 h, 5 mg/kg P.O., AII 0.1 mcg/kg IV, 60 min post dose",36%
same,inhibition in vivo at 5 mg/kg,"2 h, 5 mg/kg P.O., AII 0.05 mcg/kg IV, 120 min post dose",38%
same,inhibition in vivo at 5 mg/kg,"2 h, 5 mg/kg P.O., AII 0.1 mcg/kg IV, 120 min post dose",45%
same,inhibition in vivo at 5 mg/kg,"3 h, 5 mg/kg P.O., AII 0.05 mcg/kg IV, 180 min post dose",46%
same,inhibition in vivo at 5 mg/kg,"3 h, 5 mg/kg P.O., AII 0.1 mcg/kg IV, 180 min post dose",34%
same,inhibition in vivo at 5 mg/kg,"[…], 5 mg/kg P.O., AII 0.1 mcg/kg IV, 90 min post dose",40%
same,inhibition in vivo at 5 mg/kg,"[…], 5 mg/kg P.O., AII 0.5 mcg/kg IV, 90 min post dose",38%
